Strand notation (5' to 3'): a small letter for the sugar, then the base; units joined by * are phosphorothioate-linked, units joined directly phosphodiester-linked; [ ] holds rarer units or linkages, { } end groups; capitals alone tell only the bases. e = 2'-O-(2-methoxyethyl) (MOE); [5mC] = 5-methylcytosine; d = 2'-deoxy (DNA)
Tested on: SGLT2 mRNA
Experiment: SGLT2 mRNA levels in kidney of Balb/c mice, twenty 1-10-1 MOE gapmers at 350 nmol/kg, PPS 534 and PPS 553 (Example 18, Table 74)
Format: in vivo, mouse
Conditions: 350 nmol/kg i.p. twice per week for two weeks
Method: Twenty 1-10-1 MOE gapmers that are complementary to human/monkey/mouse/rat SGLT2 were designed, synthesized and tested in vivo for suppression of SGLT2 mRNA levels in kidney. Data are averages from two experiments in which male 6-week old Balb/c mice were administered intraperitoneal injections of 350 nmol/kg of oligonucleotide, twice per week, over a period of two weeks (a total of four injections). Mice were sacrificed 48 hours following the last administration and evaluated for SGLT2 mRNA levels in kidney. SGLT2 mRNA levels were determined by quantitative real-time PCR analysis according to standard procedures, using two different PCR primer probe sets, primer probe set (PPS) 534 and PPS 553. SGLT2 mRNA levels were normalized to cyclophilin mRNA levels, which were also measured by quantitative real-time PCR.

| Substance | SGLT2 mRNA in kidney, % change relative to saline (primer probe set 534) | SGLT2 mRNA in kidney, % change relative to saline (primer probe set 553) |
| --- | --- | --- |
| 379695 (antisense eG*dG*dA*d[5mC]*dA*d[5mC]*d[5mC]*dG*dT*d[5mC]*dA*eG) [compound 379695] | −52.5% | −64.1% |
| 379696 (antisense e[5mC]*dA*dG*d[5mC]*dT*dT*d[5mC]*dA*dG*dG*dT*eA) [compound 379696] | −24.6% | −36.2% |
| 379697 (antisense e[5mC]*dT*dG*dG*d[5mC]*dA*dT*dG*dA*d[5mC]*d[5mC]*eA) [compound 379697] | −32.0% | −46.3% |
| 379698 (antisense eG*d[5mC]*dA*dG*d[5mC]*d[5mC]*d[5mC]*dA*d[5mC]*d[5mC]*dT*e[5mC]) [compound 379698] | −11.8% | −27.0% |
| 379699 (antisense eG*dG*d[5mC]*dA*dT*dG*dA*dG*d[5mC]*dT*dT*e[5mC]) [compound 379699] | −83.5% | −85.8% |
| 379700 (antisense e[5mC]*d[5mC]*dA*dG*d[5mC]*dA*dT*dG*dA*dG*dT*e[5mC]) [compound 379700] | −2.8% | −16.4% |
| 379701 (antisense e[5mC]*d[5mC]*dA*dT*dG*dG*dT*dG*dA*dA*dG*eA) [compound 379701] | −0.3% | −11.9% |
| 379702 (antisense eG*d[5mC]*dA*d[5mC]*dA*d[5mC]*dA*dG*d[5mC]*dT*dG*e[5mC]) [compound 379702] | −87.8% | −89.5% |
| 379703 (antisense eG*d[5mC]*d[5mC]*dG*dG*dA*dG*dA*d[5mC]*dT*dG*eA) [compound 379703] | −44.2% | −45.9% |

Source: patent publication US8188059B2, “Compounds and methods for modulating expression of GCGR” (Isis Pharmaceuticals, Inc., priority 2006, dated 2012)
